ChEMBL document CHEMBL3507680, “University of Dundee, Gates Library screen for HepG2 cell viability”

Experiment: Human HepG2 cell viability assay in 384 well format
Assay type: toxicity, cell-based
Set-up: dose 125 nL, time 70.5 hour; concentration not given beside the values
Conditions: HepG2 cells, read-out: Inhibition

SMILES	cytotoxicity at 70.5 h
Cc1cc(CN(C)C(=O)c2ccc(Cl)c(N3CCCC3=O)c2)no1	28.1%
CN(CC(=O)N1CCCC1c1cnn(C)c1)Cc1ccccc1 (stereo not drawn)	-11.9%
CC(Cn1cccn1)NCc1ccc(Cl)s1 (stereo not drawn)	-4.9%
Cc1ccc(S(=O)(=O)Nc2ccc(=O)n(C)c2)c(Br)c1	21.8%
COc1ccc2c(c1)CCN2Cc1nc2c(cnn2C)c(=O)[nH]1	-9.79%
CC(Cn1ccnc1)NC(=O)C1(c2ccccc2)CC1 (stereo not drawn)	-10.4%
NC(=O)c1ccc(CNC(=O)Nc2cn[nH]c2)cc1	16%
Cc1cccc(C2(C(=O)NC(C)Cn3ccnc3)CC2)c1 (stereo not drawn)	-8.86%
CC(Cn1ccnc1)NC(=O)C1(c2cccc(Cl)c2)CC1 (stereo not drawn)	-1.52%
CNS(=O)(=O)Cc1cccc(CNC(=O)Nc2cn[nH]c2)c1	-4.03%
COC(=O)c1ccc(N2CCN(C(=O)c3ccco3)C(C)C2)cc1 (stereo not drawn)	-3.57%
CC(NC(=O)N1CCC(n2cncn2)CC1)c1ccc(F)cc1 (stereo not drawn)	-6.99%
Cn1cc(C2CCCN2C(=O)CCCOc2ccccc2F)cn1 (stereo not drawn)	-2.53%
Cc1nc2n(n1)CC(NCC(=O)Nc1cc(C)on1)CC2 (stereo not drawn)	-6.78%
COc1ccc(C2CCCN2Cc2nc3c(cnn3C)c(=O)[nH]2)cc1 (stereo not drawn)	-8.35%
CCc1cnc(CN(C)C2CCN(CC(=O)Nc3nccs3)C2)o1 (stereo not drawn)	23%
Cc1noc(CCCC(=O)N2CCCC2c2ccsc2)n1 (stereo not drawn)	-8.85%
Cn1ccnc1CN1CCCN(Cc2noc(C3CC3)n2)CC1	-1.01%
O=C(Nc1ccncc1)C1=NN(c2ccccc2)C(=O)CN1	-16.1%
O=C(Nc1ccccc1F)C1=NN(c2ccccc2)C(=O)CN1	-4.94%
CCCc1noc(CCC(=O)N2CCCC2c2cccc(OC)c2)n1 (stereo not drawn)	-8.65%
O=C(CCc1nc(-c2ccccn2)no1)N1CCCC1c1ccsc1 (stereo not drawn)	-10.3%
Cc1ccccc1OCC(O)CN1CCC(c2ccn[nH]2)CC1 (stereo not drawn)	-4.42%
COc1ccc(COCC(O)CN2CCC(c3ccn[nH]3)CC2)cc1 (stereo not drawn)	-8.27%

SMILES	cytotoxicity at 70.5 h
CCc1nnc2n1CCN(C(=O)c1nc(-c3ccco3)sc1C)C2	-6%
c1ncn(CC2CCCN(Cc3nc(-c4ccoc4)no3)C2)n1 (stereo not drawn)	-10.5%
Cc1nn(C)c(C)c1C1CCCN1Cc1ccc(C(N)=O)cc1 (stereo not drawn)	-10.3%
Cc1cnn(CCNCC(O)COc2ccc(F)cc2)c1 (stereo not drawn)	-10.4%
CCc1noc(CN2CCN(C(=O)COC)CC2)n1	6.94%
Cc1cnn(CC2CCCN2C(=O)CN(C)C2CC2)c1 (stereo not drawn)	-11.8%
CCN(CC)CC(=O)N1CCCC1Cn1cccn1 (stereo not drawn)	-4.89%
Cc1nn(C)c(C)c1C1CCCN1Cc1cccc(OCC(N)=O)c1 (stereo not drawn)	-7.47%
COc1c(C2CCCN2C(=O)c2c(C)noc2C(C)C)c(C)nn1C (stereo not drawn)	-4.7%
Cn1ccnc1CC1CCCN(Cc2noc(C3CC3)n2)C1 (stereo not drawn)	-9.18%
CCOC(=O)c1ccc(S(=O)(=O)NCc2cccnc2N(C)C)cc1	34.2%
COc1c(C)cnc(CN2CCCC(Cn3nc(C)nc3C)C2)c1C (stereo not drawn)	-3.59%
c1ncn(CC2CN(Cc3ccc4c(c3)OCCO4)CCO2)n1 (stereo not drawn)	-0.441%
CCN(Cc1ccccc1)C(=O)CN1CCOC(Cn2cncn2)C1 (stereo not drawn)	5.38%
CS(=O)(=O)NCCCN1CCCC1c1ccsc1 (stereo not drawn)	-9.71%
Cc1cnn(CC(=O)N2CCCN(c3nc(C)cs3)CC2)c1	0.581%
O=C(CN1CCCCC1Cn1cncn1)NCCc1ccsc1 (stereo not drawn)	9.35%
CCC(C)NC(=O)CS(=O)(=O)Cc1cc(Cl)c2c(c1)OCCCO2 (stereo not drawn)	-5.29%
NC(=O)CS(=O)(=O)Cc1cc(Cl)c2c(c1)OCCCO2	13.8%
COc1ccc(S(=O)(=O)NCc2cccnc2N(C)C)cc1	-5%
CNC(=O)CS(=O)(=O)Cc1cc(Cl)c2c(c1)OCCO2	-4.61%
CN(Cc1ccsc1)C(=O)Nc1ccc(N2CCCC2)nc1	0.563%
O=C(CN1CCC(c2ccnn2CCO)CC1)NCc1ccco1	11.2%
CNC(=O)c1ccc(S(=O)(=O)NCc2cccnc2N(C)C)cc1	-6.39%

SMILES	cytotoxicity at 70.5 h
Cc1csc(N2CCN(C(=O)CCn3cccn3)CC2)n1	3.65%
Cc1cnn(CCC(=O)N2CCN(c3nccs3)CC2)c1	17.7%
CN(Cc1ccsc1)C(=O)Nc1ccc(N(C)C)nc1	-2.83%
CCOc1ccnc(N2CCN(C(=O)c3c(CC)noc3C)CC2)n1	-7.39%
CCOc1ccnc(N2CCN(C(=O)c3cn[nH]c3C)CC2)n1	13.7%
CC(C)c1nc(CN2CCCC2c2cnn(C)c2)cs1 (stereo not drawn)	-2.88%
CC(=O)N(C)c1nc(CN2CCCC2c2cnn(C)c2)cs1 (stereo not drawn)	1%
c1ccc(-n2ncc(CNCC3CCCN3c3cccnn3)n2)cc1 (stereo not drawn)	5.2%
O=C1COc2cc(C(=O)NS(=O)(=O)c3ccccc3F)ccc2N1	21.7%
CC(NC(=O)CSCC(=O)Nc1ccccc1)c1ccccc1 (stereo not drawn)	-1.19%
CCN(CC1CCOC1)C(=O)c1ccccc1N1CCOCC1 (stereo not drawn)	18.7%
CC(C(=O)N1CCCN(c2ncccc2C#N)CC1)n1ccnc1 (stereo not drawn)	21.6%
CC(C)CN(C)c1ccc(C(=O)N2CCCC2c2cnn(C)c2)cn1 (stereo not drawn)	21.8%
CSc1nccn1-c1cccc(C(=O)NCCCN2CCOCC2)c1	1.7%
Cc1nc2ccnn2c(C)c1CCC(=O)N1CCN(C2CC2)CC1	15.8%
COc1ccnc(N2CCN(C(=O)CN3CCCC3=O)CC2)n1	0.556%
COC(=O)c1ccc(N2CCN(CCC(=O)NC(N)=O)C(C)C2)cc1 (stereo not drawn)	-6.28%
Cc1noc(Cl)c1CC(=O)N1CCCC(n2cccn2)C1 (stereo not drawn)	-4.55%
Cn1ccnc1CN1CCN(Cc2ccccc2C#N)CC1	6.78%
Cc1nccn1C1CCCN(C(=O)c2ccc3c(c2)nnn3C)C1 (stereo not drawn)	-6.07%
CCOCC(O)CN1CCN(C(=O)c2cnc3n[nH]c(C)c3c2)CC1 (stereo not drawn)	-2.39%
CSc1nccn1-c1cccc(C(=O)NCc2nnc(C)n2C)c1	6.07%
Cc1noc(C)c1CN1CCc2nn(C(C)C)c(=O)cc2C1	38.6%
Cc1nc2ccnn2c(C)c1CCC(=O)N1CCC(C(N)=O)CC1	2.4%

SMILES	cytotoxicity at 70.5 h
Cc1cnc2c(S(=O)(=O)NCC3CCN(C4CC4)C3)cccc2c1 (stereo not drawn)	-5.3%
CCN(CC)CCNC(=O)c1cnc(C(C)(C)C)s1	-6.77%
CCc1ncc2c(n1)CN(Cc1nc(-c3ccsc3)no1)CC2	-6.7%
Cc1nn(C)c(C)c1CC(=O)N1CCCC(n2ccnc2)C1 (stereo not drawn)	-3.37%
COc1ccc(CC(=O)N2CCCC2Cn2cccn2)cc1F (stereo not drawn)	-9.94%
O=C(NCCOc1ccc2c(c1)OCO2)C1CC(=O)N(CC2CC2)C1 (stereo not drawn)	1.74%
CNS(=O)(=O)c1ccc(C(=O)N2CCCC2Cc2ccccc2)o1 (stereo not drawn)	1.08%
O=C(NCCOc1cccc(Cl)c1)C1CC(=O)N(CC2CC2)C1 (stereo not drawn)	40.6%
CC(NC(=O)NCC1(N2CCCCC2)CCCCC1)c1nncn1C (stereo not drawn)	-20.6%
CN(C)S(=O)(=O)c1ccc(CN2CCCC2c2ccccc2)o1 (stereo not drawn)	32.6%
CCc1ccc(S(=O)(=O)Nc2cc(OC)c(OC)cc2C(=O)O)s1	4.71%
CC(NC(=O)NCC1(c2ccccc2)CCC1)c1nncn1C (stereo not drawn)	-16.7%
O=C(COC(=O)Cc1cccs1)NCc1cccc(NC(=O)C2CC2)c1	-10.5%
CCn1cc(NC(=O)C2CCN(CCOC(C)C)CC2)cn1	-1.36%
CNS(=O)(=O)c1ccc(C(=O)N2CCCC2c2ccccc2)o1 (stereo not drawn)	-14.1%
O=C(c1csc(-c2cccs2)n1)N1CCCC1Cn1cccn1 (stereo not drawn)	-18.2%
Cc1cc(NC(=O)CN(C)C2CCCN(c3cccnn3)C2)n(C)n1 (stereo not drawn)	-4.81%
c1ncn(CC2CN(Cc3csc(C4CCCC4)n3)CCO2)n1 (stereo not drawn)	-7.39%
c1csc(-c2nc(CN3CCOC(Cn4cncn4)C3)cs2)c1 (stereo not drawn)	-26.8%
COCCNC(=O)NCc1ccc(OC(C)C)c(F)c1	-10.4%
Cc1cn2c(n1)CCC(NC(=O)CCn1ccnn1)C2 (stereo not drawn)	-8.67%
CCOc1cc(C(=O)N2CCCC(c3noc(C)n3)C2)ccn1 (stereo not drawn)	-12.6%
CN(C)CC1CN(c2ccc(C#N)cn2)CCO1 (stereo not drawn)	-10.1%
CCN1CCOC(CNCc2ccccn2)C1 (stereo not drawn)	-7.88%

SMILES	cytotoxicity at 70.5 h
CN(C)S(=O)(=O)c1ccc(CN2CCCC2c2ccc[nH]2)o1 (stereo not drawn)	-5.46%
CCCc1n[nH]c(C2CN(C(=O)C3=COCCC3)CCO2)n1 (stereo not drawn)	-16.3%
CCc1nc2n(n1)CC(NCc1ccnc(-c3ccccc3)n1)CC2 (stereo not drawn)	-10%
Cc1cccc(OCCNC(=O)CN2CCCC2Cn2cccn2)c1 (stereo not drawn)	-15.8%
CNS(=O)(=O)c1ccc(C(=O)N2CCCC2c2cnn(C)c2)o1 (stereo not drawn)	23%
CNC(=O)CCCNCc1c(C(C)C)nn(C)c1N(C)C	14.4%
CC(C)c1nc(C2CCCN2C(=O)c2ccc(N(C)C)nn2)no1 (stereo not drawn)	7.67%
CN(CCc1ccccn1)S(=O)(=O)N1CCCC1c1ccco1 (stereo not drawn)	-10.8%
COc1cccc(CCNC(=O)CN2CCN(C)CC2C)c1 (stereo not drawn)	-17.1%
CC(NC(=O)NCCCO)c1ccc2c(c1)OCCO2 (stereo not drawn)	-10.1%
CN(Cc1ccsc1)C(=O)c1cc2c([nH]c1=O)CCCC2=O	-12.8%
CN1CCC(NC(=O)NCCNc2ccccn2)CC1	-13.1%
CC(N(C)Cc1nc2c(cnn2C)c(=O)[nH]1)C(C)(C)C (stereo not drawn)	21%
COCCCNC(=O)CN(C)C(=O)c1cc(C)sc1C	-14%
CN(CC(=O)N1CCN(c2ccccc2F)CC1)c1cnccn1	-18.2%
CS(=O)(=O)NC1CCN(C(=O)NCCc2ccccc2F)CC1	-5.64%
COc1ccccc1OCCN1CCC(N2CCNC2=O)CC1	19.7%
Cn1ccnc1CN1CCN(Cc2cc(C#N)ccc2F)CC1	-11.4%
COc1cccc(OCCNC(=O)CN2CCN(C)CC2C)c1 (stereo not drawn)	-13.4%
Cc1cnn(CCNCc2ccccc2C#N)c1	13.2%
CC(NC(N)=O)C(=O)N(C)CCCc1cc(-c2ccccc2)no1 (stereo not drawn)	-21.7%
CC(C)c1nn(C)c(N(C)C)c1CNCCC(=O)N(C)C	-2.45%
